Measurements from PMC10793205, “Differential transmetallation of complexes of the anti-cancer thiosemicarbazone, Dp4e4mT: effects on anti-proliferative efficacy, redox activity, oxy-myoglobin and oxy-hemoglobin oxidation” (Chemical Science, 2023).
Entries after “also recorded” stand apart in the source; their conditions may differ.

Tests used:
H2DCF = assay: Redox activity: H2DCF oxidation to DCF (cell-free, L-cysteine/H2O2); type: biochemical; settings: 10 μM, pH 7.4 and pH 5, no added CuCl2
Description: Redox activity in cells was examined using an established in vitro method examining 2′,7′-dichlorodihydrofluorescein (H2DCF) oxidation to fluorescent 2′,7′-dichlorofluorescein (DCF) at cytosolic pH (pH 7.4 using HBSS buffer) relative to lysosomal pH (pH 5; acetate buffer; Fig. 5).[25,26,28,42,46] To these buffers containing the complexes, L-cysteine (100 μM) was added as a reducing agent, followed by H2DCF (5 μM). Then, hydrogen peroxide (H2O2; 100 μM) was added to initiate hydroxyl radical generation. Both [Cu(DpC)Cl2] and [Cu(DpC)2] were used as positive controls due to their documented redox activity.[28,42] In contrast, the ligand, DpC, was implemented as a negative control, as it is redox inert.[28,42] As an additional control, the established Cu chelator, tetrathiomolybdate (TM), was utilized to remove Cu from the thiosemicarbazone complexes to indicate its role in their redox activity.[27,28,42] Additionally, UV-vis spectroscopy (300–700 nm) of the same solution for each complex was also performed to understand both the oxidation of H2DCF and the formation of fluorescent DCF upon excitation at 503 nm (Fig. S20A–F and S21A–F ^†). […]
ROS Generation Analysis with H 2DCF-DA
The generation of reactive oxygen species (ROS) was assessed by examining the oxidation of H2DCF.2, 8, 13, 14 Solutions containing CuCl2, TM, DpC, Dp4e4mT, [Fe(DpC)2]+, [Cu(DpC)Cl2], [Cu(DpC)2] and the Dp4e4mT complexes were prepared at a concentration of 10 µM in either HBSS (pH 7.4) or 150 mM acetate buffer (pH 5) to simulate the conditions of the cytosol and lysosome, respectively.2, 8, 14, 15 The H2DCF was prepared by deacetylation of DCFH-DA (Sigma-Aldrich) through alkaline hydrolysis using NaOH. 16
In these prepared solutions, L-cysteine (100 µM) was added as a reducing agent and then H2DCF (5 µM) added. The initiation of hydroxyl radical generation was achieved by the addition of hydrogen peroxide (H2O2; 100 µM). As a comparative benchmark, HBSS or acetate buffer containing L-cysteine, H2DCF, and H2O2, but lacking ligands or metal complexes, was employed as a control. Fluorescence measurements were carried out using a CLARIOstar Plus microplate reader (BMG LABTECH, Australia) with an excitation wavelength of 485 nm and an emission wavelength of 530 nm. 8, 14

[1] = molecular target: T1, oxy-Hb in intact human erythrocytes (Homo sapiens, UniProt P68871+P69905); assay: Oxidation of oxy-Hb in intact human erythrocytes; type: cell-based; settings: 10 μM, 3 h/37 °C
T1 construct: Physiologically, oxy-Hb is found in erythrocytes; endogenous in cells; host or cells: intact human erythrocytes from fresh blood of healthy donors
T1 sequence (P69905 2-142 limits assumed): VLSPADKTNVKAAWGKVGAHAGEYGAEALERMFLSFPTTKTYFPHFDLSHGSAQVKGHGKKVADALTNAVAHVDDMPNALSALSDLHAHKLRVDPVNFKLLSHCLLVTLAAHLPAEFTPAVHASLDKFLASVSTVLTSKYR
T1 sequence (P68871 2-147 limits assumed): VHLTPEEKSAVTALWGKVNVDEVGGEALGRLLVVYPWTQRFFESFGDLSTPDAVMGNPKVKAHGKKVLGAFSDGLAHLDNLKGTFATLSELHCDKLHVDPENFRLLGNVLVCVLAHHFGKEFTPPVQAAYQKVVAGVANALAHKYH
Description: Fig. 7 (A and B) Investigation of the effects of Dp4e4mT and its Fe(III), Co(III), Ni(II), Cu(II), Zn(II), Ga(III), and Pd(II) complexes versus DFO, Dp44mT, DpC and their Fe(III) complexes (10 μM) on met-Hb generation (% zero time) after an incubation of 1–3 h/20 °C with purified oxy-Hb (40 μM). (C) Investigation of the effects of Dp4e4mT and its Fe(III), Co(III), Ni(II), Cu(II), Zn(II), Ga(III), or Pd(II) complexes relative to the positive controls DFO, Dp44mT, DpC, and their Fe(III) complexes (10 μM) on oxy-Hb oxidation in intact human erythrocytes after a 3 h/37 °C incubation. Results are mean ± SD (3 experiments).
Physiologically, oxy-Hb is found in erythrocytes, and in the current investigation, the ligands and complexes (10 μM) were incubated with intact human erythrocytes for 3 h/37 °C to assess their effects on oxy-Hb oxidation (Fig. 7C). As expected from our previous studies,[28,39] […]
In experiments examining the activity of the agents, all complexes were dissolved in 1,2-propanediol, then diluted to 10 µM in PBS (pH 7.2). […]
1800; Shimadzu, Kyoto, Japan). Concentrations of met-Mb and met-Hb, as well as reduced-Mb and reduced-Hb, were determined at 409 nm and 435 nm, respectively. Concentrations of oxy-Mb and oxy-Hb were determined at 544 nm and 582 nm, respectively. 17 Oxidation of Oxy-Hb in Human Erythrocytes
Oxidation of oxy-Hb in human erythrocytes was performed by standard methods using fresh blood from healthy donors after collection in Vacutainer® collection tubes (BD, Plymouth, UK).8 Erythrocytes centrifuged (480 xg/5 min/4°C) and then washed in HBSS, and subsequently resuspended in this buffer. Incubation of the erythrocytes (15% hematocrit) in the absence or presence of the agents (10 μM) was performed for 3 h/37°C. The erythrocytes were […]

[2] = Cyclic voltammetry (redox potentials); type: physicochemical; settings: 1 mM in MeCN/H2O 7 : 3 (v/v) + 0.1 M Et4NClO4, sweep rate 100 mV s^−1
Excerpt: The redox potentials of Fe(III)- and Cu(II)-thiosemicarbazone complexes have been extensively studied and are important for understanding intracellular redox activity and ROS generation.[23,27,28,42] Considering this, the electrochemical properties of [Fe(Dp44mT)2]^+, [Fe(DpC)2]^+, [Fe(Dp4e4mT)2]^+, [Co(Dp4e4mT)2]^+, [Ni(Dp4e4mT)2], [Cu(Dp4e4mT)Cl], [Ga(Dp4e4mT)2]^+, and [Pd(Dp4e4mT)Cl] were investigated with cyclic voltammetry in MeCN : H2O (70 : 30 v/v; Fig. 4A and B). This solvent system was implemented to provide sufficient solubility and because it has been used by our laboratories previously to measure potentials of thiosemicarbazone complexes enabling effective comparison.[28,45,57–59]
Fig. 4 Cyclic voltammograms of: (A) [Fe(Dp44mT)2]^+, [Fe(DpC)2]^+, and [Fe(Dp4e4mT)2]^+. (B) [Co(Dp4e4mT)2]^+, [Ni(Dp4e4mT)2], [Cu(Dp4e4mT)Cl], [Ga(Dp4e4mT)2]^+, and [Pd(Dp4e4mT)Cl] (1 mM in MeCN/H2O 7 : 3 (v/v) + 0.1 M Et4NClO4) at a sweep rate of 100 mV s^−1. The voltammograms were recorded using a glassy carbon working electrode versus a […] (NHE). […]
Cyclic voltammograms were acquired for the Fe(III), Co(III), Ni(II), Cu(II), Ga(III), and Pd(II) complexes of Dp4e4mT utilizing a BAS100B/W potentiostat, equipped with an aqueous Ag/AgCl reference electrode, a glassy carbon working electrode, and a Pt wire auxiliary […]
electrode. […]

oxy-Mb = molecular target: T2, oxy-Mb (Homo sapiens, UniProt P02144); assay: Oxidation of purified oxy-Mb to met-Mb (UV-vis); type: biochemical; settings: 10 μM agent, oxy-Mb 40 μM, 3 h incubation, 20 °C
T2 sequence (P02144 1-154): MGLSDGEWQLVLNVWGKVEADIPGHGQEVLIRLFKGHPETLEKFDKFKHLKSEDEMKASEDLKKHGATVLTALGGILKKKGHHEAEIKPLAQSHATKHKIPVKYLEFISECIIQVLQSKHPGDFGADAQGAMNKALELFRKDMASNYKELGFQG
Excerpt: As such, it was important to examine the effect of the Dp4e4mT complexes on oxy-Hb and oxy-Mb oxidation (Fig. 6 and 7). Comparisons were made to three controls, namely DFO, Dp44mT, and DpC, as well as their Fe(III) complexes. […] In contrast, the Fe(III) complexes of Dp44mT and DpC were positive controls, as they induce oxidation of oxy-Mb.[28,39,42]
Fig. 6 (A and B) Investigation of the effects of Dp4e4mT and its Fe(III), Co(III), Ni(II), Cu(II), Zn(II), Ga(III), and Pd(II) complexes versus the positive controls DFO, Dp44mT, DpC and their Fe(III) complexes (10 μM) on met-Mb generation (% zero time) after an incubation of 1–3 h/20 °C with purified oxy-Mb (40 μM). Results are mean ± SD (3 experiments).
Spectroscopic Examination of Met-Mb and Met-Hb Formation from Oxy-Mb and Oxy- […]
Oxy-Mb and oxy-Hb solutions were prepared following established protocols.8, 17 In brief, solutions of reduced Mb and Hb in PBS (pH 7.2) were prepared by adding 1.2 mL of Na2S2O4 (12 mM) to 38 mL of met-Mb and met-Hb solution (40 μM). 17 Subsequently, oxy-Mb and oxy-Hb were generated by gently passing 150 mL of oxygen (from an air-filled syringe) through the solution containing reduced Mb and Hb, effectively eliminating any residual Na2S2O4. Following this, the oxy-Mb and oxy-Hb solutions were passed through a PD-10 column prepacked with 8.3 mL of Sephadex G-25 and equilibrated with PBS (pH 7.2). 17 In experiments examining the activity of the agents, all complexes were dissolved in 1,2-propanediol, then diluted to 10 µM in PBS (pH 7.2). The experiments were conducted over incubations of 0 to 3 h with the agents. UV-Vis spectra covering the range of 300 to 700 nm were recorded at a temperature of 20°C using a Shimadzu UV−Vis spectrophotometer (UV-1800; Shimadzu, Kyoto, Japan). Concentrations of met-Mb and met-Hb, as well as reduced-Mb and reduced-Hb, were determined at 409 nm and 435 nm, respectively. Concentrations of oxy-Mb and oxy-Hb were determined at 544 nm and 582 nm, respectively. 17

SMILES | DCF fluorescence (H2DCF oxidation) of agent alone (H2DCF) | oxy-Hb oxidation in erythrocytes versus the control (in words) [1] | Redox potential (mV vs. NHE) [2] | oxy-Mb oxidation (met-Mb generation) (oxy-Mb) | also measured
[Cl][Cu][Cl] [CuCl2, reference compound] | significantly (p < 0.0001–0.01) increased DCF fluorescence | – | – | – | –
CC(=O)N([O-])CCCCCNC(=O)CCC(=O)N([O-])CCCCCNC(=O)CCC(=O)N([O-])CCCCCN.[Fe+3] [DFO Fe(III) complex, reference compound] | – | did not induce any significant (p > 0.05) increase in oxy-Hb oxidation | – | – | –
[SH-].[SH-].[S]=[Mo]=[S] [TM, tetrathiomolybdate, reference compound] | did not significantly (p > 0.05) increase DCF fluorescence | – | – | – | –
CN(C(=S)NN=C(c1ccccn1)c1ccccn1)C1CCCCC1.[Cl-].[Cl-].[Cu+2] [[Cu(DpC)Cl2], reference compound] | significantly (p < 0.0001–0.01) increased DCF fluorescence; also recorded: greatest efficacy at increasing DCF fluorescence | – | – | – | –
CN(C)C([S-])=NN=C(c1ccccn1)c1ccccn1.CN(C)C([S-])=NN=C(c1ccccn1)c1ccccn1.[Fe+3] [[Fe(Dp44mT)2]^+, reference compound] | – | – | +166 mV vs. NHE | 222 % of the control | oxy-Hb oxidation to met-Hb in erythrocytes ([1]; control 0.5%): 34.4 % of the total
CN(C([S-])=NN=C(c1ccccn1)c1ccccn1)C1CCCCC1.CN(C([S-])=NN=C(c1ccccn1)c1ccccn1)C1CCCCC1.[Fe+3] [[Fe(DpC)2]^+, reference compound] | – | did not induce any significant (p > 0.05) increase in oxy-Hb oxidation | +149 mV vs. NHE | 161 % of the control | –
